Consider 3 compounds from ChEMBL document CHEMBL1150821, “A new metabolite from the marine bacterium Vibrio angustum S14” (2001).

Activity calls are given as the source filed them. The rule behind the calls is not given here.

For one assay, the system named is Vibrio harveyi. As to the kind of experiment: Induction of bioluminescence in Vibrio harveyi UNSW at 10 uM relative to control. The format is functional.
Assay [1] has as its system Agrobacterium tumefaciens. As to the kind of experiment: Induction of acylated homoserine lactone system-mediated traI-lacZ reporter gene expression in Agrobacterium tumefaciens A136 at 2.5 ug. It is filed as functional, organism-based. (A reporter such as luciferase makes a cellular process visible.)

Regarding `CC(O)CC(=O)N[C@H]1CCOC1=O` (some centres undefined), in the assay with Vibrio harveyi, the “fold change (FC)” value was determined as 128.
Take `CCCCOC(OCC(C)C)C(C)(C)O` (centres undefined): the outcome in assay [1] was Active. Besides, the “fold change (FC)” value with Vibrio harveyi stood at 32.
As for `CCCC(=O)CC(=O)N[C@H]1CCOC1=O`, the outcome in assay [1] was Active.
